Laboratory results as given in BindingDB's records for doi:10.1016/j.ejmech.2013.09.015 (China Pharmaceutical University, 2013).

Assay: Agonist activity at VDR in human HL60 cells assessed as induction of cell differentiation after 96 hrs by NBT reduction assay

Row | EC50 [nM] | SMILES
1 | 4.1 | CCn1c(C(=O)N[C@@H](C)C(=O)O)ccc1C(CC)(CC)c1ccc(OCC(O)C(C)(C)C)c(C)c1 (stereo not given in full)
2 | 1600 | CCC(CC)(c1ccc(OCC(O)C(C)(C)C)c(C)c1)c1ccc(C(=O)NCCC(=O)O)n1C (stereo not given)
3 | 4950 | CCC(CC)(c1ccc(OCC(O)C(C)(C)C)c(C)c1)c1ccc(C(=O)NCC(=O)O)n1C (stereo not given)
4 | 410 | CCC(CC)(c1ccc(OCC(=O)C(C)(C)C)c(C)c1)c1ccc(C(=O)N[C@@H](CC(=O)O)C(=O)O)n1C
5 | 2630 | CCC(CC)(c1ccc(OCC(=O)C(C)(C)C)c(C)c1)c1ccc(C(=O)N[C@@H](C)C(=O)O)n1C
6 | 110 | CCn1c(C(=O)N[C@H](CO)CCO)ccc1C(CC)(CC)c1ccc(OCC(O)C(C)(C)C)c(C)c1 (stereo not given in full)
7 | 1.1 | CCn1c(C(=O)N[C@@H](C)CO)ccc1C(CC)(CC)c1ccc(OCC(O)C(C)(C)C)c(C)c1 (stereo not given in full)
8 | 5640 | CCn1c(C(=O)NCCO)ccc1C(CC)(CC)c1ccc(OCC(O)C(C)(C)C)c(C)c1 (stereo not given)
9 | 200 | CCC(CC)(c1ccc(OCC(O)C(C)(C)C)c(C)c1)c1ccc(C(=O)N[C@H](CO)CCO)n1C (stereo not given in full)
10 | 570 | CCC(CC)(c1ccc(OCC(O)C(C)(C)C)c(C)c1)c1ccc(C(=O)N[C@@H](C)CO)n1C (stereo not given in full)
11 | 150 | CCC(CC)(c1ccc(OCC(O)C(C)(C)C)c(C)c1)c1ccc(C(=O)NCCCO)n1C (stereo not given)
12 | 1830 | CCn1c(C(=O)NCC(=O)OC)ccc1C(CC)(CC)c1ccc(OCC(=O)C(C)(C)C)c(C)c1
13 | 790 | CCC(CC)(c1ccc(OCC(=O)C(C)(C)C)c(C)c1)c1ccc(C(=O)NCCC(=O)OC)n1C
14 | 23 | CCC(CC)(c1ccc(OCC(=O)C(C)(C)C)c(C)c1)c1ccc(C(=O)NCC(=O)OC)n1C
15 | 7.1 | C=C1/C(=C\C=C2/CCC[C@]3(C)[C@@H]([C@H](C)CC[C@@H](O)C(C)C)CC[C@@H]23)C[C@@H](O)C[C@@H]1O [TACALCITOL]
